We go through four compounds from ChEMBL document CHEMBL3297657, “Synthesis and antitumor activities of novel α-aminophosphonate derivatives containing an alizarin moiety” (Eur J Med Chem, 2014).

Test [1] has as its system NCI-H460. Kind of test: Induction of apoptosis in human NCI-H460 cells assessed as early apoptotic cells at 5 to 20 uM after 24 hrs by Annexin V/propidium iodide staining-based flow cytometry relative to control. In kind it is functional, cell-based.
The test system of a further test is A549. Put plainly: cells. To be noted: Homo sapiens, A549, 48 h.
For another test, the system named is CNE. Kind of test: Cytotoxicity against human CNE cells after 48 hrs by MTT assay. In kind it is functional, cell-based. For orientation: Formazan colour is commonly taken as a measure of viable cells.
Another test deals with MGC-803. Put plainly: Cytotoxicity against human MGC803 cells after 48 hrs by MTT assay. The class given is functional, cell-based. The conditions noted are these: MGC-803, 48 h.
The test system of a further test is KB. Kind of test: Cytotoxicity against human KB cells after 48 hrs by MTT assay. In kind it is functional, cell-based.
Test [2] concerns NCI-H460. Kind of test: Cytotoxicity against human NCI-H460 cells after 48 hrs by MTT assay. The conditions noted are these: NCI-H460, 48 h. The class given is functional, cell-based.
A further test concerns HCT-116. Kind of test: cells. To be noted: Homo sapiens, HCT-116, 48 h.
The subject of a further test is HepG2. Kind of test: cells. To be noted: Homo sapiens, HepG2, 48 h.
For another test, the system named is HUVEC. Put plainly: Cytotoxicity against HUVEC after 48 hrs by MTT assay. In kind it is cell-based. The conditions noted are these: Homo sapiens.
A further test concerns HeLa. Kind of test: cells. The conditions noted are these: Homo sapiens, 48 h.

SMILES strings stand for the structures. The source made the active and inactive calls. No cut-off for these calls is given here. A value given as a limit tells only on which side of the number the result lay.

Description for A549: Cytotoxicity against human A549 cells after 48 hrs by MTT assay
Description for HCT-116: Cytotoxicity against human HCT116 cells after 48 hrs by MTT assay
Description for HeLa: Cytotoxicity against human HeLa cells after 48 hrs by MTT assay
Description for HepG2: Cytotoxicity against human HepG2 cells after 48 hrs by MTT assay

In the case of `CCOP(=O)(OCC)C(NC(=O)C(C)Oc1ccc2c(c1O)C(=O)c1ccccc1C2=O)c1ccccc1` (stereo not given), the result in the test with NCI-H460 [1] was Active. Moreover, the IC50 with A549 was 34.6 µM; in the test with CNE, more than 50 µM; in the test with MGC-803 it was 6.66 µM; in the test with KB, 0.65 µM; in the test on NCI-H460 [2] it was 8.11 µM; with HCT-116, 8.07 µM. Also, the IC50 in the test on HepG2, in the test on HUVEC and in the test on HeLa was more than 50 µM each time.
As for `CCOP(=O)(OCC)C(NC(=O)C(C)Oc1ccc2c(c1O)C(=O)c1ccccc1C2=O)c1cccc(C)c1` (stereo not given), the result with NCI-H460 [1] was Active. The IC50 is 25.6 µM in the test with A549; 30.5 µM in the test on CNE; 8.02 µM in the test with MGC-803; 9.68 µM in the test with KB; 9.31 µM in the test with NCI-H460 [2]; 36.2 µM in the test on HCT-116. Also, the IC50 was more than 50 µM in the test on HepG2, more than 50 µM in the test with HUVEC and 17.4 µM with HeLa.
With `CCOP(=O)(OCC)C(NC(=O)C(C)Oc1ccc2c(c1O)C(=O)c1ccccc1C2=O)c1ccccc1Br` (stereo not given), in the test with NCI-H460 [1], the outcome was Active. Further, the IC50 turned out to be 11.4 µM in the test on A549; 47.3 µM in the test on CNE; 15.1 µM in the test with MGC-803; 0.13 µM in the test with KB; 4.11 µM in the test on NCI-H460 [2]; 7.31 µM with HCT-116. Besides, the IC50 turned out to be 24.1 µM with HepG2, 24.1 µM in the test with HUVEC and 41.6 µM in the test on HeLa.
With `CCOP(=O)(OCC)C(NC(=O)C(C)Oc1ccc2c(c1O)C(=O)c1ccccc1C2=O)c1ccccc1Cl` (stereo not given), the result in the test with NCI-H460 [1] was Active. Moreover, the IC50 amounted to 10.1 µM with A549; 43.1 µM with CNE; 11 µM in the test with MGC-803; 0.14 µM with KB; 3.8 µM in the test on NCI-H460 [2]; 14.8 µM in the test on HCT-116. For the same compound, the IC50 turned out to be 19.9 µM in the test with HepG2, 19.9 µM in the test on HUVEC and 20.9 µM with HeLa.

One may read the IC50 as the concentration that gives 50% inhibition. The low end stands for greater potency in that assay, the high end for weaker potency in that assay.
